Assay results as given in US9957264B2 (Merck Sharp & Dohme Corp., priority 2013, dated 2018).

Legend:
[1] = target: JAK1 (recombinant purified GST-tagged catalytic domain) (Homo sapiens (Human), UniProt P23458); assay: Jak Biochemical HTRF Assay (JAK1); settings: [ATP] 31.8 μM
Summary of the method: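 Phosphorylation of a common biotinylated peptide by each catalytic domain is measured by HTRF. The ATP-started reaction runs 120 min at room temperature before EDTA quench and detection.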

[2] = target: JAK2 (recombinant purified GST-tagged catalytic domain) (Homo sapiens (Human), UniProt O60674); assay: Jak Biochemical HTRF Assay (JAK2); settings: [ATP] 8.5 μM
Sequence of JAK2 (recombinant purified GST-tagged catalytic domain) (O60674 849-1124): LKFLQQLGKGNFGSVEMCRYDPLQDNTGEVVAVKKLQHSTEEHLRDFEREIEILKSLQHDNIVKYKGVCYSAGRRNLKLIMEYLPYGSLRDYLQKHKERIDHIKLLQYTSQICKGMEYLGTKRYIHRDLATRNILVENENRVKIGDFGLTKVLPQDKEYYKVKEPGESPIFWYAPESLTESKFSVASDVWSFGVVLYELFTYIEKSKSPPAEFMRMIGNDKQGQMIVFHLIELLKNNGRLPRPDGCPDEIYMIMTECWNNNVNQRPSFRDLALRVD

Sequence of JAK1 (recombinant purified GST-tagged catalytic domain) (P23458 875-1153): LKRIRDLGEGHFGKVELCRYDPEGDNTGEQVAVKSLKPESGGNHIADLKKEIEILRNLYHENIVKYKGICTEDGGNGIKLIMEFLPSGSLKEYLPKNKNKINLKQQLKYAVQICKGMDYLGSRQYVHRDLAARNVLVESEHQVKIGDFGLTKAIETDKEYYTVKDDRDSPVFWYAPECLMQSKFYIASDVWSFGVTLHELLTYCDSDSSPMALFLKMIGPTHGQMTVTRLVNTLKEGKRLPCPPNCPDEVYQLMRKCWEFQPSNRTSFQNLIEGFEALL

| SMILES | IC50 [1] [nM] | IC50 [2] [nM] |
| --- | --- | --- |
| CC(C)(C)OC(=O)[C@@H]1CC[C@@](CC#N)(n2nc(Nc3ccc(C(C)(O)C(F)(F)F)cc3)c3c(=O)[nH]ccc32)CO1 (single isomer, unassigned) [Example 5-171, (2S,5S)-tert-butyl 5-(cyanomethyl)-5-(4-oxo-3-((4-((S or R)-1,1,1-trifluoro-2-hydroxypropan-2-yl)phenyl)amino)-4,5-dihydro-1H-pyrazolo[4,3-c]pyridin-1-yl)tetrahydro-2H-pyran-2-carboxylate] | 0.07 | 0.18 |
| CC(C)(C)OC(=O)N1CC[C@](CC#N)(n2nc(Nc3ccc([C@H](O)C(F)(F)F)cc3)c3c(=O)[nH]ccc32)[C@H](F)C1 (single isomer, unassigned) [Example 5-20, tert-butyl (3R,4R)-4-(cyanomethyl)-3-fluoro-4-[4-oxo-3-({4-[(1S or 1R)-2,2,2-trifluoro-1-hydroxyethyl]phenyl}amino)-4,5-dihydro-1H-pyrazolo [4,3-c]pyridin-1-yl] piperidine-1-carboxylate] | 0.15 | 0.12 |
| CN(C(C)(C)C(=O)OC(C)(C)C)S(=O)(=O)c1ccc(Nc2nn(C3(CC#N)CCCC3)c3cc[nH]c(=O)c23)cc1 [Example 5-137, tert-butyl 2-(4-((1-(1-(cyanomethyl)cyclopentyl)-4-oxo-4,5-dihydro-1H-pyrazolo[4,3-c]pyridin-3-yl)amino)-N-methylphenylsulfonamido)-2-methylpropanoate] | 1.9 | 5.85 |
| CC(C)CN1Cc2cc(Nc3nn(C4(CC#N)CCN(C(=O)OC(C)(C)C)CC4)c4cc[nH]c(=O)c34)ccc2S1(=O)=O [Example 5-67] | 0.47 | 0.52 |
| Cc1cc(Nc2nn([C@]3(CC#N)CCOC[C@@H]3F)c3cc[nH]c(=O)c23)ccc1C(=O)N1CCOCC1 (single isomer, unassigned) [Example 5-258, 2-((3R,4R or 3S,4S)-3-fluoro-4-(3-((3-methyl-4-(morpholine-4-carbonyl)phenyl)amino)-4-oxo-4,5-dihydro-1H-pyrazolo[4,3-c]pyridin-1-yl)tetrahydro-2H-pyran-4-yl)acetonitrile] | 0.07 | 0.08 |
| CN(C)S(=O)(=O)c1ccc(Nc2nn(C3(CC#N)CCN(C(=O)CCc4ccccc4)CC3)c3cc[nH]c(=O)c23)cc1 [Example 9-17, 4-({1-[4-(cyanomethyl)-1-(3-phenylpropanoyl)piperidin-4-yl]-4-oxo-4,5-dihydro-1H-pyrazolo[4,3-c]pyridin-3-yl}amino)-N,N-dimethylbenzenesulfonamide] | 0.15 | 0.7 |
| CC(C)(C)OC(=O)[C@@H]1CC[C@@](CC#N)(n2nc(Nc3ccc(S(C)(=O)=O)cc3)c3c(=O)[nH]ccc32)CO1 [Example 5-39, (2S,5S)-tert-butyl 5-(cyanomethyl)-5-(3-((4-(methylsulfonyl)phenyl)amino)-4-oxo-4,5-dihydro-1H-pyrazolo[4,3-c]pyridin-1-yl)tetrahydro-2H-pyran-2-carboxylate] | 0.06 | 0.43 |
| CC(C)(C)OC(=O)[C@@H]1CC[C@](CC#N)(n2nc(Nc3ccc(S(C)(=O)=O)cc3)c3c(=O)[nH]ccc32)CO1 (racemic) [Example 5-35, (2R,5S and 2S,5R)-tert-butyl 5-(cyanomethyl)-5-(3-((4-(methylsulfonyl)phenyl)amino)-4-oxo-4,5-dihydro-1H-pyrazolo [4,3-c]pyridin-1-yl) tetrahydro-2H-pyran-2-carboxylate] | 3.43 | 29.3 |
| CC(C)NC(C)(C)c1ccc(Nc2nn([C@@]3(CC#N)CCCC[C@H]3F)c3cc[nH]c(=O)c23)cc1 [Example 5-175, [(1R,2R)-2-fluoro-1-{3-[(4-{1-methyl-1-[(1-methylethyl)amino]ethyl}phenyl)amino]-4-oxo-4,5-dihydro-1H-pyrazolo[4,3-c]pyridin-1-yl}cyclohexyl]acetonitrile] | 0.09 | 0.06 |
| CN(C)S(=O)(=O)c1ccc(Nc2nn(C3(CC#N)CCOCC3)c3cc[nH]c(=O)c23)cc1 [Example 5-254, 4-((1-(4-(cyanomethyl)tetrahydro-2H-pyran-4-yl)-4-oxo-4,5-dihydro-1H-pyrazolo[4,3-c]pyridin-3-yl)amino)-N,N-dimethylbenzenesulfonamide] | 0.66 | 1.4 |
| N#CC[C@@]1(n2nc(Nc3ccc4c(c3)CN(C3CCCC3)C4=O)c3c(=O)[nH]ccc32)CCCOC1 [Example 5-197, [(3S)-3-{3-[(2-cyclopentyl-1-oxo-2,3-dihydro-1H-isoindol-5-yl)amino]-4-oxo-4,5-dihydro-1H-pyrazolo[4,3-c]pyridin-1-yl}tetrahydro-2H-pyran-3-yl]acetonitrile] | 0.13 | 1.13 |
| CN(C)S(=O)(=O)c1ccc(Nc2nn(C3(CC#N)CCN(C(=O)CCC(F)(F)F)CC3)c3cc[nH]c(=O)c23)cc1 [Example 9-21, 4-({1-[4-(cyanomethyl)-1-(4,4,4-trifluorobutanoyl)piperidin-4-yl]-4-oxo-4,5-dihydro-1H-pyrazolo[4,3-c]pyridin-3-yl}amino)-N,N-dimethylbenzenesulfonamide] | 0.08 | 0.33 |

Now from value to molecule:

| IC50 [1] [nM] | IC50 [2] [nM] | SMILES |
| --- | --- | --- |
| 0.41 | 1.37 | CC(OC(=O)N1CCC(CC#N)(n2nc(Nc3ccc(S(=O)(=O)N(C)C)cc3)c3c(=O)[nH]ccc32)CC1)c1ccccn1 (stereo not shown) [Example 11-9, 1-(pyridin-2-yl)ethyl 4-(cyanomethyl)-4-(3-((4-(N,N-dimethylsulfamoyl)phenyl)amino)-4-oxo-4,5-dihydro-1H-pyrazolo[4,3-c]pyridin-1-yl)piperidine-1-carboxylate] |
| 0.1 | 2.07 | CN(C(=O)[C@@H]1CC[C@@](CC#N)(n2nc(Nc3ccc4c(c3)CN(C(C)(C)C)S4(=O)=O)c3c(=O)[nH]ccc32)CO1)C(C)(C)C [Example 19-2, (2S,5S)-N-tert-butyl-5-{3-[(2-tert-butyl-1,1-dioxido-2,3-dihydro-1,2-benzisothiazol-5-yl)amino]-4-oxo-4,5-dihydro-1H-pyrazolo[4,3-c]pyridin-1-yl}-5-(cyanomethyl)-N-methyltetrahydro-2H-pyran-2-carboxamide] |
| 1.07 | 12.1 | CN1Cc2cc(Nc3nn([C@]4(CC#N)CC[C@@H](N(C)C)CC4)c4cc[nH]c(=O)c34)ccc2S1(=O)=O [Example 18-34, Trans 2-(4-(Dimethylamino)-1-(3-((2-methyl-1,1-dioxido-2,3-dihydrobenzo-[d]isothiazol-6-yl)amino)-4-oxo-4,5-dihydro-1H-pyrazolo[4,3-c]pyridin-1-yl)cyclohexyl)acetonitrile] |
| 0.64 | 5.54 | COC(=O)N1CCC(CC#N)(n2nc(Nc3ccnc(F)c3)c3c(=O)[nH]ccc32)CC1 [Example 13-2, methyl 4-(cyanomethyl)-4-(3-(2-fluoropyridin-4-ylamino)-4-oxo-4,5-dihydropyrazolo[4,3-c]pyridin-1-yl)piperidine-1-carboxylate] |
| 0.38 | 1.69 | C[C@@H]1CCCC1OC(=O)N1CCC(CC#N)(n2nc(Nc3ccc(S(=O)(=O)N(C)C)cc3)c3c(=O)[nH]ccc32)CC1 (mixture of isomers) [Example 11-2, (trans racemic)-2-methylcyclopentyl 4-(cyanomethyl)-4-(3-((4-(N,N-dimethylsulfamoyl)phenyl)amino)-4-oxo-4,5-dihydro-1H-pyrazolo[4,3-c]pyridin-1-yl)piperidine-1-carboxylate] |
